# In patent US20080045582A1, “ENA-78 Gene Polymorphisms and Protein Concentrations as Diagnostic and Prognostic Tools” (priority 2006, published 2008):
# Tests used:
# FGF = FGF production by non-stimulated human umbilical vein endothelial cells, multiplex protein measurement; type: cell-based; conditions: atorvastatin 1-50 μM, 24 hours, FIG. 12
# Description: (§1) Human umbilical vein endothelial cells were obtained (Clonetics Cell Systems; Cambrex Bio Science Walkersville, Inc., Walkersville, Md.). Approximately 5×10^5 viable cells were seeded in endothelial cell growth-supplemented basal medium (EGM-2-endothelial cell medium-2; Cambrex Bio Science Walkersville, Inc.) and maintained at 37° C. under a 5% carbon dioxide atmosphere per manufacturer's protocol. The culture medium was changed 24 hours after seeding and every 48 hours thereafter until confluence. Cells were then treated with trypsin, seeded in a 48-well culture dish, and incubated under the conditions previously described. Cells used in this Example were from the third passage. […]
# (§2) The culture-conditioned media protein content of epithelial neutrophil-activating peptide-78 (ENA-78), interleukin-8, (IL-8), monocyte chemotactic protein-1 (MCP-1), interleukin-6 (IL-6), interleukin-10 (IL-10), fibroblast growth factor (FGF), and granulocyte colony-stimulating factor (G-CSF) were measured by means of flow-based immunofluorescence multiplex detection (Fluorokine MAP Human Cytokine Panel; R&D Systems Inc., Minneapolis, Minn.) with the Luminex 100 IS platform (Luminex Corp., Austin, Tex.). […]
# G-CSF = G-CSF production by non-stimulated human umbilical vein endothelial cells, multiplex protein measurement; type: cell-based; conditions: atorvastatin 1-50 μM, 24 hours, FIG. 12
# Description: as §1, §2
# ENA-78 [1] = experiment: ENA-78 production by non-stimulated human umbilical vein endothelial cells, multiplex protein measurement; type: cell-based; conditions: 24 hours
# Description: (§3) Human umbilical vein endothelial cells were obtained (Clonetics Cell Systems; Cambrex Bio Science Walkersville, Inc., Walkersville, Md.). Approximately 5×10^5 viable cells were seeded in endothelial cell growth-supplemented basal medium (EGM-2-endothelial cell medium-2; Cambrex Bio Science Walkersville, Inc.) and maintained at 37° C. under a 5% carbon dioxide atmosphere per manufacturer's protocol. The culture medium was changed 24 hours after seeding and every 48 hours thereafter until confluence. Cells were then treated with trypsin, seeded in a 48-well culture dish, and incubated under the conditions previously described. Cells used in this Example were from the third passage.
# (§4) After cells reached 70-80% confluence in the culture dish, they were allowed to become quiescent in unsupplemented, serum-free medium for 24 hours before treatment and then placed in medium containing 2% fetal bovine serum. Atorvastatin (LKT Laboratories Inc., St. Paul, Minn.) was dissolved in dimethylsulfoxide (Sigma-Aldrich, St. Louis, Mo.). Cells were treated for 24 hours with atorvastatin 1-50 μM alone or with atorvastatin plus mevalonate 250 μM (Sigma-Aldrich). Controls were cells cultured without atorvastatin or atorvastatinmevalonate. […] All experiments were performed in duplicate.
# (§5) After treatment, culture-conditioned media were collected, divided into aliquots, and stored at −80° C. for no longer than 7 days until multiplex measurement of chemokines, cytokines, and angiogenic factors was performed.
# (§6) The culture-conditioned media protein content of epithelial neutrophil-activating peptide-78 (ENA-78), interleukin-8, (IL-8), monocyte chemotactic protein-1 (MCP-1), interleukin-6 (IL-6), interleukin-10 (IL-10), fibroblast growth factor (FGF), and granulocyte colony-stimulating factor (G-CSF) were measured by means of flow-based immunofluorescence multiplex detection (Fluorokine MAP Human Cytokine Panel; R&D Systems Inc., Minneapolis, Minn.) with the Luminex 100 IS platform (Luminex Corp., Austin, Tex.). Concentrations for each sample were normalized against milligrams of total protein by using a standard bicinchoninic acid protein assay (Pierce Biotechnology, Inc., Rockford, Ill.). Samples were assayed in duplicate.
# (§7) Standard curves of best fit for each analyte were generated by plotting the median fluorescence intensities of the analyte standards against their known concentrations by using Beadview multiplex data analysis software version 1 (Upstate, Charlottesville, Va.).
# Differences in biomolecular concentrations were compared by treatment group by applying one-way analysis of variance and a post-hoc Tukey's test as appropriate. The Jonckheere Terpstra test was performed to assess the trend for differences in biomolecular concentrations across concentrations of atorvastatin. […]
# ENA-78 [2] = experiment: IL-1beta-stimulated ENA-78 production from HUVECs, cytometric immunofluorescence; type: cell-based, human; conditions: for ENA-78 production reduced by, compared with IL-1beta-stimulated cells in the absence of AT: AT pre-treatment 2 h before IL-1beta
# Description: Human umbilical vein endothelial cells (HUVECs) (Clonetics Cell Systems; Cambrex Bio Science Walkersville, Inc., Walkersville, USA) were cultured as previously described. Briefly, HUVECs between passes three and four were seeded at a density of 2.5×10^4 cells per cm^2 and cultured to 80% confluence with endothelial cell growth-supplemented medium (EGM-2-endothelial cell medium-2; Cambrex Bio Science Walkersville, Inc.). Once confluent, media was changed to serum free endothelial basal media (EBM-2-endothelial cell medium-2; Cambrex Bio Science Walkersville, Inc.) for 24 hours prior to treatment, in which EBM-2 media supplemented to a 2% FBS concentration was used. Treatments consisted of atorvastatin calcium (AT; LKT Laboratories Inc., St. […] All were dissolved in molecular grade water. All final DMSO concentrations were less then 0.1%. […] In experiments investigating the impact of AT on IL-1beta-stimulated ENA-78 production, HUVECs were pre-treated with AT followed by IL-1beta stimulation two hours later. […] In a separate set of experiments, cells were cultured with IL-1beta and AT in the presence or absence of mevalonate, FPP, and GGPP to determine whether AT inhibition of ENA-78 production was dependent on HMG-CoA reductase inhibition and subsequent downstream pathways. Cell culture supernates for all experiments were stored at -20° C. until analysis, which was performed within seven days. ENA-78 concentrations were measured and normalized to total protein content in cell culture supernates using cytometric immunofluorescence as previously described. Ribonucleic acid (RNA) was isolated using a commercial kit (RNeasy mini kit, Qiagen Inc., Valencia, USA). Complementary deoxyribonucleic acid (cDNA) conversion was performed by high capacity cDNA reverse transcription (Applied Biosystems, Foster City, USA) per protocol using roughly 2 μg of total RNA. RNA quality was assessed by absorbance (Nanodrop, Nanodrop Technologies, Wilmington, USA). Real-time reverse-transcription PCR (RT-PCR) was done using primer and probe sets for CXCL5 normalized to a housekeeping gene, glyceraldehyde-3-phosphate dehydrogenase (GAPDH; Taqman Gene Expression Assays, Applied Biosystems Inc.). […] PCR for both CXCL5 and GAPDH was performed at the same time using the following conditions: 95° C. for 2 minutes; 35 cycles of 95° C. for 30 seconds, 59° C. for 30 seconds, and 72° C. for 30 seconds; followed by 7 minutes of elongation at 72° C. Statistical differences in normalized protein concentrations and gene expression levels were determined by one way ANOVA and post-hoc Tukey analysis. […] An independent t-test was used to compare treatment differences at the same time points in the dose range analysis. […] Statistical analyses were performed with SPSS software, version 11.5 (SPSS Inc., Chicago, USA).
# IL-8 = IL-8 production by non-stimulated human umbilical vein endothelial cells, multiplex protein measurement; type: cell-based
# Description: as §3, §4, §5, §6, §7
# Differences in biomolecular concentrations were compared by treatment group by applying one-way analysis of variance and a post-hoc Tukey's test as appropriate. The Jonckheere Terpstra test was performed to assess the trend for differences in biomolecular concentrations across concentrations of atorvastatin. A p value below 0.05 was considered to indicate a statistically significant difference. Statistical analyses were performed with SPSS software, version 11.5 (SPSS Inc., Chicago, Ill.).
compound,measurement,setting,value
CC(C)c1c(C(=O)Nc2ccccc2)c(-c2ccccc2)c(-c2ccc(F)cc2)n1CC[C@@H](O)C[C@@H](O)CC(=O)O [atorvastatin],concentrations of FGF,FGF,did not change
same,concentrations of G-CSF,G-CSF,did not change
same,reduction in ENA-78 production compared with untreated controls,"ENA-78 [1]; escalating concentrations of atorvastatin (10 μM to 50 μM), FIG. 10A",45-85%
same,ENA-78 production vs untreated control,ENA-78 [1]; lower concentrations of atorvastatin,not significantly altered
same,"ENA-78 production reduced by, compared with IL-1beta-stimulated cells in the absence of AT","ENA-78 [2]; 1st of the five AT dose groups (1, 5, 10, 25, 50 μM)",38%
same,"ENA-78 production reduced by, compared with IL-1beta-stimulated cells in the absence of AT","ENA-78 [2]; 2nd of the five AT dose groups (1, 5, 10, 25, 50 μM)",70%
same,"ENA-78 production reduced by, compared with IL-1beta-stimulated cells in the absence of AT","ENA-78 [2]; 3rd of the five AT dose groups (1, 5, 10, 25, 50 μM)",78%
same,"ENA-78 production reduced by, compared with IL-1beta-stimulated cells in the absence of AT","ENA-78 [2]; 4th of the five AT dose groups (1, 5, 10, 25, 50 μM)",93%
same,"ENA-78 production reduced by, compared with IL-1beta-stimulated cells in the absence of AT","ENA-78 [2]; 5th of the five AT dose groups (1, 5, 10, 25, 50 μM)",99%
same,IL-1beta-stimulated ENA-78 production,ENA-78 [2]; AT at concentrations ≧25 uM,returned to baseline
same,IL-1beta-stimulated ENA-78 production,"ENA-78 [2]; IL-1beta and AT 10 uM, FIG. 16",1054 ± 349 pg/mg
same,time at which AT attenuation of ENA-78 production relative to IL-1beta was most pronounced,"ENA-78 [2]; time course 0, 4, 12, 24, 48 hours, FIG. 15",48 h
same,IL-8 concentrations lowered by,"IL-8; 1st of the four atorvastatin groups (1-50 μM), 24 hours",26%
same,IL-8 concentrations lowered by,"IL-8; 2nd of the four atorvastatin groups (1-50 μM), 24 hours",72%
same,IL-8 concentrations lowered by,"IL-8; 3rd of the four atorvastatin groups (1-50 μM), 24 hours",83%
same,IL-8 concentrations lowered by,"IL-8; 4th of the four atorvastatin groups (1-50 μM), 24 hours",89%
same,minimum effective concentration giving significant reduction in IL-8 compared with control,"IL-8; 24 hours, FIG. 10B",5 µM
same,IL-8 production,"IL-8; atorvastatin 5 μM, 24 hours (control 551±69)",155±45 pg/mg protein
